Here are results for ten compounds from patent publication US20250205344A1, “2,4-DIOXOTETRAHYDROPYRIMIDINYL DERATIVES AS DEGRONS IN PROTACS” (GLAXOSMITHKLINE INTELLECTUAL PROPERTY DEVELOPMENT LIMITED, priority 2022, published 2025).

Where a name gives a salt, the structure may show the parent alone.

One experiment addresses T1, Androgen Receptor (Homo sapiens, UniProt P10275, T878A).
T1 construct: the AR gene was modified, using CRISPR/Cas9 editing, so the expressed AR protein included an 11 amino acid HiBiT tag; endogenous in cells; host or cells: clonal LnCaP-derived line, AR gene edited by CRISPR/Cas9
The experiment can be described thus: Androgen Receptor Degradation Assay (Nano-Glo HiBiT). Format: cell-based. As to conditions: LNCaP, 18 h, HiBiT-tagged AR in human LnCaP cells, read-out: mean asymptote max. The essentials: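 LnCaP cells with CRISPR-knocked-in N-terminal HiBiT-tagged AR (10,000/well) treated 18 h at 37 °C with PROTACs over 11 threefold concentrations; lytic HiBiT luminescence normalised to DMSO (0%) and cell-free (100%) controls. Relative DC50 = 4-parameter fit inflection; absolute DC50 = 50% degradation interpolation; Dmax = maximum observed degradation.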
(HiBiT is a short tag that completes a luciferase, so light tracks the accessible tagged protein.)

Experiment [1] has as its target T2, Androgen Receptor dual T878A/L702H mutant protein (Homo sapiens, UniProt P10275, L702H/T878A).
T2 construct: Androgen Receptor dual T878A/L702H mutant protein in human MDA PCa 2b (ATCC, #CRL-2422) cells; host or cells: MDA PCa 2b
T2 sequence (P10275 1-920 L702H/T878A): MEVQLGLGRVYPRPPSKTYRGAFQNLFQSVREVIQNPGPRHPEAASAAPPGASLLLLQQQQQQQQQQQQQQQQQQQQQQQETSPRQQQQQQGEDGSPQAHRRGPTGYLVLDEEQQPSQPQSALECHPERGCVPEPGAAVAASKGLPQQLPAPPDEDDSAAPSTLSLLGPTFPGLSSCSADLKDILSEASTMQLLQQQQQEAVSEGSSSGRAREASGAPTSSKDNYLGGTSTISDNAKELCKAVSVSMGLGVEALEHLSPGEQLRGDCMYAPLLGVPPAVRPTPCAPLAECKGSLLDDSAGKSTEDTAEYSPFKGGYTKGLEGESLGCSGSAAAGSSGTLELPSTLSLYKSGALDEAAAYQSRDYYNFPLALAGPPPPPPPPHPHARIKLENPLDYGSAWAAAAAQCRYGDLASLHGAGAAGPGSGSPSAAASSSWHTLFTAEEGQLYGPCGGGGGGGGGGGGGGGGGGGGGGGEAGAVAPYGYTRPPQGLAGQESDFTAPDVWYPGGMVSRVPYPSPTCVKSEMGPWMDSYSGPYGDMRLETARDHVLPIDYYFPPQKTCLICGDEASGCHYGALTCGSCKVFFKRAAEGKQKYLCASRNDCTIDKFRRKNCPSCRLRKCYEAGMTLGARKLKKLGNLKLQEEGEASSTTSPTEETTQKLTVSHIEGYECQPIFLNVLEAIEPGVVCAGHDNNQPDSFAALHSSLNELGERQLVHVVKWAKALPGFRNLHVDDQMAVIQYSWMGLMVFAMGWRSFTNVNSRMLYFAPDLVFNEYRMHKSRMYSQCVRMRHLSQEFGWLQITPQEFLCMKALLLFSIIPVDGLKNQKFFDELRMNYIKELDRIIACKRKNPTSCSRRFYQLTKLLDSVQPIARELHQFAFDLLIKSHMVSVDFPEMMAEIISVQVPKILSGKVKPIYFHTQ
Kind of experiment: Dual Mutant (T878A/L702H) Androgen Receptor Degradation Assay (HTRF). Particulars: MDA-PCa-2b, 18 h, human MDA PCa 2b cells, read-out: mean asymptote max. Format: cell-based. Here is the method: Degradation of Androgen Receptor dual T878A/L702H mutant protein in human MDA PCa 2b (ATCC, #CRL-2422) cells treated with PROTACs was quantified using the HTRF Human Androgen Receptor Detection Kit (PerkinElmer, #64ANDRPEH) in 384 well assay plate format. 10 mM DMSO(Sigma-Aldrich, #472301) stock solutions of PROTACs were prepared and diluted across an 11 concentration, 3-fold increment range, and 25 nL dispensed into a white opaque bottomed 384 well assay plate (Thermofisher, #164610) using an acoustic ECHO dispenser (Labcyte). Cells were cultured in growth medium (BRFF-HPC-1 (Athena ES, #0403) supplemented with 20% FBS (Gibco, #10099-141), penicillin 50 U/mL and streptomycin 50 ug/mL (Gibco, #15140-122)) in collagen I or poly-D-lysine coated T175 flasks (Corning, #356487 or #356539, respectively). For the assay, cells were harvested from the flask, centrifuged at 200 g for 5 min and then resuspended in the growth medium. 25 μl of cell suspension containing 10,000 cells was dispensed into each well of the assay plate containing the test compounds, which was then incubated for 18 h at 37° C./5% CO2. Control wells were included on each assay plate, with assay medium without cells being the no AR remaining 100% effect control, and cells treated with DMSO vehicle only, without PROTAC, the 0% effect control. After 18 h incubation 8 μl of supplemented lysis buffer from HTRF kit was added to each well and the plate shaken at 500 rpm for 1 h at room temperature. 8 μl of antibody mix in Detection buffer from HTRF kit was added to each well and the plate was incubated for 2 h in dark at room temperature. The fluorescence was measured at both 620 nm and 665 nm using an excitation wavelength of 337 nm with a PHERAstar microplate reader (BMG Labtech) and the % AR protein remaining in each well was calculated by normalising the HTRF ratio (665 nm signal/620 nm signal) value to the control wells mentioned above. Parameters corresponding to the potency and efficacy estimates of the PROTACs were obtained from these normalised values using curve fitting software (IDBS ActivityBase). These included the DC50 and the Dmax estimates. Two versions of the DC50, called relative DC50 and absolute DC50, were typically generated. These are the inflection point of a fitted 4 parameter sigmoidal response curve and the interpolated concentration of PROTAC corresponding to 50% of the protein being degraded, respectively. The Dmax parameter was the maximum experimentally observed degradation and the asymptote max parameter the fitted response curve asymptote maximum.
(In general: TR-FRET usually uses a lanthanide donor and a delayed reading to cut background.)

In experiment [2] the target is T3, Full length Cereblon protein (6His tev Cereblon/6His tev DDB1ΔBPB) (Homo sapiens, UniProt Q96SW2).
T3 construct: Full length Cereblon protein (6His tev Cereblon/6His tev DDB1ΔBPB) was expressed and purified from E. coli; made in house; host or cells: E. coli
T3 sequence (Q96SW2 whole entry, stated change not applied): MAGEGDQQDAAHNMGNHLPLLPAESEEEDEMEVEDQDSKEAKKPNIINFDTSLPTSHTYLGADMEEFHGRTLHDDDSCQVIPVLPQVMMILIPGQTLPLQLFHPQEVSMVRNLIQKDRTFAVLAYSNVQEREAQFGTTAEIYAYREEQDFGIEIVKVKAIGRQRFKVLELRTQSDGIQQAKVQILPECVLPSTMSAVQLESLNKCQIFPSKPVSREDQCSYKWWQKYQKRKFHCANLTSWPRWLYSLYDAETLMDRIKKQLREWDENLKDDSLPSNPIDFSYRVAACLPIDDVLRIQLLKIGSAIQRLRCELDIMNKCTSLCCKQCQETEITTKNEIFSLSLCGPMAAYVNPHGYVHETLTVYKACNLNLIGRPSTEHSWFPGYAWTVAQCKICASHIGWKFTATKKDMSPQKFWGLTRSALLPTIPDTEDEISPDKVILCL
The experiment can be described thus: Cereblon Binding Assay (TR-FRET). Particulars: 5 nM protein, 50 nM Alexa647-lenalidomide ligand, read-out: Mean pIC50 (converted). Here is the method: Full length Cereblon protein (6His tev Cereblon/6His tev DDB1ΔBPB) was expressed and purified from E. coli to monitor compound binding. […] A Thermo Scientific Multidrop Combi was used to dispense 5 μL of 10 nM protein in assay buffer of 50 mM
HEPES, 150 mM NaCl, 5% glycerol, 1 mM DTT and 1 mM CHAPS, pH 7.4, in the presence of 100 nM fluorescent ligand (Final assay concentrations of 5 nM protein and 50 nM ligand). After equilibrating for 15 min in the dark at room temperature a 5 μL addition was made of 2 nM europium chelate labelled anti-6His antibody (Perkin Elmer, W1024, AD0111) in assay buffer (1 nM FAC). […] TR-FRET ratio data was normalised to high (DMSO) and low (reaction in the absence of protein) controls and pIC50 values determined for each of the compounds tested by fitting the fluorescence ratio data to a four parameter model:
[formula] • where ‘a’ is the minimum, ‘b’ is the maximum, ‘c’ is the pIC50 and ‘d’ is the Hill slope.

T1 sequence (P10275 whole entry T878A): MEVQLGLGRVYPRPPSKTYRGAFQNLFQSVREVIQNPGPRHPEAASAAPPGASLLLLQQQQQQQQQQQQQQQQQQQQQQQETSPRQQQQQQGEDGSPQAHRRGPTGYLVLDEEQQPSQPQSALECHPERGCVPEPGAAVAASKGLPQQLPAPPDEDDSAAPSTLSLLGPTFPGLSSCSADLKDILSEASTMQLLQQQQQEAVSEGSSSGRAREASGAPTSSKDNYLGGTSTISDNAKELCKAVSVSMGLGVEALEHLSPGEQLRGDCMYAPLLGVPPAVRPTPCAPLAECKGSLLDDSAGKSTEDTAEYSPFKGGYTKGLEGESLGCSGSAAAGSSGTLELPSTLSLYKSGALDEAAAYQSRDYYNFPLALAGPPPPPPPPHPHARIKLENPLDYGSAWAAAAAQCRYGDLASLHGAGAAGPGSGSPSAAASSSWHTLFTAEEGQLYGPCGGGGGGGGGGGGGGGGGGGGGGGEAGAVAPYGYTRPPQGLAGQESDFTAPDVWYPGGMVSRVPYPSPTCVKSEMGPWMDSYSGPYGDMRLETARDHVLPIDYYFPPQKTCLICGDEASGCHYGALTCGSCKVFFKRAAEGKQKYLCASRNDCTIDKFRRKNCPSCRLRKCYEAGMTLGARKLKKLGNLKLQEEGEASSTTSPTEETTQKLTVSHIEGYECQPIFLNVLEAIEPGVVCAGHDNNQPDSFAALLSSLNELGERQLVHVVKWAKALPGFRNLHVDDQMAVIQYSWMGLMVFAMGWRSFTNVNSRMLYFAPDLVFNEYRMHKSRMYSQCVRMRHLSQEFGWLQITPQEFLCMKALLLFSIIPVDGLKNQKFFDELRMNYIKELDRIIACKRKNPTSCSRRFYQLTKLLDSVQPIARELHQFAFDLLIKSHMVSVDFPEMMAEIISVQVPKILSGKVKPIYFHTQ
T1 sequence (Q96SW2 whole entry partner): as the sequence (Q96SW2 whole entry, stated change not applied) above
T1 sequence (Q16531 whole entry partner): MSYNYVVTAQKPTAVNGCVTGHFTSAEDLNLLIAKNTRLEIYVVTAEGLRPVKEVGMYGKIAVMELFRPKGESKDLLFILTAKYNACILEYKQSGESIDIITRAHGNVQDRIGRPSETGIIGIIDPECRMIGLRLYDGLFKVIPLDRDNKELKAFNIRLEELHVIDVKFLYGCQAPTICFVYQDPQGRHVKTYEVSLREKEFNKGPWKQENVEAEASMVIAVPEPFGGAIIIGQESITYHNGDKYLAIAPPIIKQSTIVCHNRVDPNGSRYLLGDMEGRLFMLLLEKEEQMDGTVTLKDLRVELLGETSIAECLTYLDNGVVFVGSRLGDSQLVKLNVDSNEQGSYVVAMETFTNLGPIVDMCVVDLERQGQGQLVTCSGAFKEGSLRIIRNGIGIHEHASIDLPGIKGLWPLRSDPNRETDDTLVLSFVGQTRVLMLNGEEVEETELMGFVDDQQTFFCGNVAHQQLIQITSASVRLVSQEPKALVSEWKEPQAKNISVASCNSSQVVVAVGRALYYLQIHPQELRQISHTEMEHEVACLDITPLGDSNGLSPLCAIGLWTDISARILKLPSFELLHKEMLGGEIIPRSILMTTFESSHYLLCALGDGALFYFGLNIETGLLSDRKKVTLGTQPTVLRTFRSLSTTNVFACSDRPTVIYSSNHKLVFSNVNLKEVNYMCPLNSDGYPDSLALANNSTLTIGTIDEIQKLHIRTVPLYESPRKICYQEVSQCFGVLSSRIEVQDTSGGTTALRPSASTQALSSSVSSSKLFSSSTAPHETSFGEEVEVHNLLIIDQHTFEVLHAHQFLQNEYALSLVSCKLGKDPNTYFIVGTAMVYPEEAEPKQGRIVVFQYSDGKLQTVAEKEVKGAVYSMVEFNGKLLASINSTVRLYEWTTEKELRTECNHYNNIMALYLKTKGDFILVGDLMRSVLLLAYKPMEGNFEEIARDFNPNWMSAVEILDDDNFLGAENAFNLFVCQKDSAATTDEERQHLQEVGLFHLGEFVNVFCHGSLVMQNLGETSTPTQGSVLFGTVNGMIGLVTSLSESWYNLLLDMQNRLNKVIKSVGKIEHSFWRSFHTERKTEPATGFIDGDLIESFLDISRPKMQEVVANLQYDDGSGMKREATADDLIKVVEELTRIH

Take `CC1(C)[C@H](NC(=O)c2ccc(N3CCC(CN4CCC(n5ccc6c(N7CCC(=O)NC7=O)nccc65)CC4)CC3)nn2)C(C)(C)[C@H]1Oc1ccc(C#N)c2ncccc12` [EAR251, N-((1r,3r)-3-((8-Cyanoquinolin-5-yl)oxy)-2,2,4,4-tetramethylcyclobutyl)-6-(4-((4-(4-(2,4-dioxotetrahydropyrimidin-1(2H)-yl)-1H-pyrrolo[3,2-c]pyridin-1-yl)piperidin-1-yl)methyl)piperidin-1-yl)pyridazine-3-carboxamide hydrochloride]: the Dmax was not below 50% at Androgen Receptor and not below 55% in experiment [1].
Taken in the same sequence, the figures for `CC1(C)[C@H](NC(=O)c2ccc(CCCCCCN3CCC(n4ccc5c(N6CCC(=O)NC6=O)cccc54)CC3)cc2)C(C)(C)[C@H]1Oc1ccc(C#N)c(C(F)(F)F)c1` [EAR75, N-((1r,3r)-3-(4-Cyano-3-(trifluoromethyl)phenoxy)-2,2,4,4-tetramethylcyclobutyl)-4-(6-(4-(4-(2,4-dioxotetrahydropyrimidin-1(2H)-yl)-1H-indol-1-yl)piperidin-1-yl)hexyl)benzamide] were not below 50% and not below 55%.
As for `CC1(C)[C@H](NC(=O)c2ccc(N3CCC(CN4CCC(n5ccc6c(N7CCC(=O)NC7=O)ncnc65)CC4)CC3)nn2)C(C)(C)[C@H]1Oc1ccc(C#N)c(Cl)c1` [AR247, N-((1r,3r)-3-(3-Chloro-4-cyanophenoxy)-2,2,4,4-tetramethylcyclobutyl)-6-(4-((4-(4-(2,4-dioxotetrahydropyrimidin-1(2H)-yl)-7H-pyrrolo[2,3-d]pyrimidin-7-yl)piperidin-1-yl)methyl)piperidin-1-yl)pyridazine-3-carboxamide], the Dmax is not below 50% on Androgen Receptor and not below 55% in experiment [1].
Consider `N#Cc1ccc(O[C@H]2CC[C@H](NC(=O)c3ccc(N4CCC(CN5CCC(n6ccc7c(N8CCC(=O)NC8=O)cccc76)C(F)(F)C5)CC4)nn3)CC2)cc1Cl` (single isomer, unassigned) [EAR162, N-((1r,4r)-4-(3-Chloro-4-cyanophenoxy)cyclohexyl)-6-(4-((4-(4-(2,4-dioxotetrahydropyrimidin-1(2H)-yl)-1H-indol-1-yl)-3,3-difluoropiperidin-1-yl)methyl)piperidin-1-yl)pyridazine-3-carboxamide], for which the IC50 in experiment [2] is not above 1000 nM. In addition, the Dmax on Androgen Receptor is not below 50%.
Regarding `CC1(C)[C@H](NC(=O)c2ccc(N3CCC(CN4CCC(n5ncc6c(N7CCC(=O)NC7=O)cccc65)CC4)CC3)nc2)C(C)(C)[C@H]1Oc1ccc(C#N)c2ncccc12` [AR261, N-((1r,3r)-3-((8-Cyanoquinolin-5-yl)oxy)-2,2,4,4-tetramethylcyclobutyl)-6-(4-((4-(4-(2,4-dioxotetrahydropyrimidin-1(2H)-yl)-1H-indazol-1-yl)piperidin-1-yl)methyl)piperidin-1-yl)nicotinamide hydrochloride], the Dmax in experiment [1] was not below 55%.
In the case of `CC1(C)[C@H](NC(=O)c2cnc(N3CCC(CN4CCC(n5ccc6c(N7CCC(=O)NC7=O)cncc65)CC4)CC3)nc2)C(C)(C)[C@H]1Oc1ccc(C#N)c(Cl)c1` [EAR18, N-((1r,3r)-3-(3-Chloro-4-cyanophenoxy)-2,2,4,4-tetramethylcyclobutyl)-2-(4-((4-(4-(2,4-dioxotetrahydropyrimidin-1(2H)-yl)-1H-pyrrolo[2,3-c]pyridin-1-yl)piperidin-1-yl)methyl)piperidin-1-yl)pyrimidine-5-carboxamide], the Dmax on Androgen Receptor was not below 50%; in experiment [1] it was not below 55%.
Take `N#Cc1ccc(O[C@H]2CC[C@H](NC(=O)c3ccc(N4CCCC(CN5CCC(n6ccc7c(N8CCC(=O)NC8=O)cccc76)CC5)C4)nn3)CC2)cc1Cl` (mixture of isomers) [EAR73, rac-N-((1r,4r)-4-(3-Chloro-4-cyanophenoxy)cyclohexyl)-6-(3-((4-(4-(2,4-dioxotetrahydropyrimidin-1(2H)-yl)-1H-indol-1-yl)piperidin-1-yl)methyl)piperidin-1-yl)pyridazine-3-carboxamide]: the IC50 in experiment [2] is not above 1000 nM. Besides, on Androgen Receptor, the Dmax was not below 50%.
On to `CC1(C)[C@H](NC(=O)c2ccc(N3CCC(CN4CCC(n5ncc6c(N7CCC(=O)NC7=O)cccc65)CC4)CC3)nn2)C(C)(C)[C@H]1Oc1cnc(C#N)c(Cl)c1` [EAR249, N-((1r,3r)-3-((5-Chloro-6-cyanopyridin-3-yl)oxy)-2,2,4,4-tetramethylcyclobutyl)-6-(4-((4-(4-(2,4-dioxotetrahydropyrimidin-1(2H)-yl)-1H-indazol-1-yl)piperidin-1-yl)methyl)piperidin-1-yl)pyridazine-3-carboxamide hydrochloride], for which the IC50 in experiment [2] is not above 1000 nM. Moreover, the Dmax on Androgen Receptor is not below 50%.
With `O=C1CCN(c2cccc3c2ccn3C[C@]2(F)CCCNC2)C(=O)N1` [ECB29, (S)-1-(1-((3-fluoropiperidin-3-yl)methyl)-1H-indol-4-yl)dihydropyrimidine-2,4(1H,3H)-dione], the IC50 in experiment [2] was 120 nM.
Same read-out and setting: to `CC(C)n1ccc2c(N3CCC(=O)NC3=O)cc(C(=O)N(C)CC3CCNCC3)cc21` [ECB16, 4-(2,4-Dioxotetrahydropyrimidin-1(2H)-yl)-1-isopropyl-N-methyl-N-(piperidin-4-ylmethyl)-1H-indole-6-carboxamide] belongs 31.6 nM.
